Results from patent publication US20140200215A1, “LYSOPHOSPHATIDIC ACID RECEPTOR ANTAGONISTS” (INTERMUNE, INC., priority 2013, published 2014).

Legend:
[1] = system: primary fibroblasts (including lung, dermal), HFL-1, 3T3 and CHO cells expressing LPA1R; experiment: LPA1 migration assay (Oris cell migration); assay type: cell-based; settings: inhibition of cell migration in response to chemoattractant (LPA, serum)
Description: Migration of primary fibroblasts (including lung, dermal), HFL-1, 3T3 and CHO cells expressing LPA1R were monitored using the Oris™ assay (Platypus Technologies, Madison, Wis.). These cells were dye (Cell Tracker Green™) loaded and serum starved for 12-24 hrs. In response to chemoattractants such as LPA and serum, the cells migrated inward in to the exclusion (detection) zone. After fixing, fluorescent cells in the detection zone were counted using a high content reader. The ability of LPA1 antagonists to inhibit cell migration is quantified by plotting cell number vs. compound concentration and curve fitting the resulting dose-response curve to a 4 parameter logistic function.

Human LPA1 = Human LPA1 (Homo sapiens, UniProt Q92633); experiment: Beta-Arrestin based assay for human LPA1R antagonists (PathHunter); assay type: cell-based; settings: CHO cells expressing ProLink tagged human LPA1R; antagonist mode, 0.5 micromolar LPA
Experimental: Beta-Arrestin Based Assays for Human LPA1R Antagonists and Agonists
A CHO cell line stably expressing the ProLink™ tagged human LPA1R was obtained from DiscoverX Inc, Fremont, Calif. In this system, β-Arrestin was fused to an N-terminal deletion mutant of β-galactosidase (termed the enzyme acceptor or EA), the human LPA1R was fused to a smaller (42 amino acids) weakly complementing fragment termed ProLink™. […] Cell handling and assays were performed according to protocols specified in the PathHunter® assays kits (DiscoverX, Fremont, Calif.). Assays were performed in quadruplicate in white 384 well plates. End point luminescence data were plotted and fit to a 4 parameter logistic function to obtain IC50 values. For antagonist assays, an […] concentration of agonist (LPA) equal to 0.5 micromolar was used.

Human LPA1, sequence (Q92633 whole entry): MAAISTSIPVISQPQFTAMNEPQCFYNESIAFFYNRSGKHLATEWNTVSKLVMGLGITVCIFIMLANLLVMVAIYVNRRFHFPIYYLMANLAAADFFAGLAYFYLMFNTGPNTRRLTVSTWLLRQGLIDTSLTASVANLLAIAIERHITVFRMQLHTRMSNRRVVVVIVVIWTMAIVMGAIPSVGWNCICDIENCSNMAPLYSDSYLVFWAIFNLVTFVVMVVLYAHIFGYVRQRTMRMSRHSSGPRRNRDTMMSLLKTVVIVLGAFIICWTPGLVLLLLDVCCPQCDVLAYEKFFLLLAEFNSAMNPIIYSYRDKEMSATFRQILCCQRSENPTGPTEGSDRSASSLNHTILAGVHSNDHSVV

| SMILES | EC50 [1] [nM] | EC50 (Human LPA1) [nM] |
| --- | --- | --- |
| CCOC(=O)C1(c2cc3sc(C#Cc4cnn(C)c4NC(=O)O[C@H](C)c4ccccc4)cc3s2)CC1 [IT085] | > 500 | < 50 |
| COc1ccccc1OC(=O)C1(c2cc3sc(C#Cc4cnn(C)c4NC(=O)O[C@H](C)c4ccccc4)cc3s2)CC1 [IT088] | 50 to 500 | < 50 |
| C[C@@H](OC(=O)Nc1c(C(F)(F)F)nnn1-c1ccc(-c2ccc(C3(C(=O)O)CC3)cc2)cc1)c1ccccc1 [IT072] | > 500 | < 50 |
| Cc1nsc(-c2cc(F)c(-c3ccc(C4(C(=O)O)CCOCC4)cc3)cc2F)c1NC(=O)O[C@H](C)c1ccccc1 [IT042] | 50 to 500 | < 50 |
| Cc1nsc(C2CCC(c3ccc(C4(C(=O)O)CC4)cc3)CC2)c1NC(=O)O[C@H](C)c1ccccc1 (single isomer, unassigned) [IT059] | > 500 | 50 to 500 |
| Cc1noc(C#Cc2ccc(/C=C/C(=O)O)cc2)c1NC(=O)O[C@H](C)c1ccccc1 [IT013] | > 500 | > 500 |
| Cc1nsc(-c2ccc(-c3cc4sc(C(=O)O)cc4s3)cc2)c1NC(=O)O[C@H](C)c1ccccc1 [IT025] | > 500 | > 500 |
| C[C@@H](OC(=O)Nc1c(C#CC2=CCC(C3(C(=O)O)CC3)CC2)cnn1C)c1ccccc1 (stereo partly drawn) [IT092] | > 500 | > 500 |
| Cc1nsc(-c2ccc(C3CCC(C4(C(=O)O)CC4)CC3)cc2)c1NC(=O)O[C@H](C)c1ccccc1 (stereo partly drawn) [IT091] | > 500 | 50 to 500 |
| C[C@@H](OC(=O)Nc1ncsc1C#Cc1cc2sc(C3(C(=O)O)CC3)cc2s1)c1ccccc1 [IT101] | – | > 500 |
| C[C@@H](OC(=O)Nc1c(-c2cc(F)c(-c3ccc(C4(C(=O)O)CC4)cc3)cc2F)nn2ccccc12)c1ccccc1 [IT049] | 50 to 500 | < 50 |
| CC(C)OC(=O)C1(c2cc3sc(C#Cc4cnn(C)c4NC(=O)O[C@H](C)c4ccccc4)cc3s2)CC1 [IT086] | > 500 | 50 to 500 |
| Cc1noc(C#Cc2ccc(CC3(C(=O)O)CC3)cc2)c1NC(=O)O[C@H](C)c1ccccc1 [IT006] | – | 50 to 500 |
| Cc1noc(C#Cc2ccc(CC3(C(=O)O)CC3)cc2)c1NC(=O)O[C@H](C)c1ccccc1 [IT001] | 50 to 500 | 50 to 500 |
| C[C@@H](OC(=O)Nc1c(-c2cc(F)c(-c3ccc(C4(C(=O)O)CC4)cc3)cc2F)oc2cnccc12)c1ccccc1 [IT096] | 50 to 500 | < 50 |
| Cc1nsc(-c2ccc3cc(C4CCC(C(=O)O)CC4)ccc3c2)c1NC(=O)O[C@H](C)c1ccccc1 (stereo partly drawn) [IT054] | > 500 | > 500 |
| Cc1nsc(C#Cc2ccc3c(c2)CCC(C(=O)O)C3)c1NC(=O)O[C@H](C)c1ccccc1 (single isomer, unassigned) [IT063] | > 500 | > 500 |
| Cc1noc(-c2ccc(-c3ccc4c(c3)NC(=O)CC4C(=O)O)cc2)c1NC(=O)O[C@H](C)c1ccccc1 (stereo partly drawn) [IT011] | > 500 | 50 to 500 |
| C[C@@H](OC(=O)Nc1c(-c2ccc(-c3ccc(C4(C(=O)O)CC4)cc3)cc2)nc2n1CCNC2)c1ccccc1 [IT019] | > 500 | > 500 |
| Cc1noc(-c2ccc(-c3ccc4c(c3)CCCC4C(=O)O)cc2)c1NC(=O)O[C@H](C)c1ccccc1 (single isomer, unassigned) [IT038] | > 500 | – |
| Cc1nsc(C2CCC(c3ccc(C4(C(=O)O)CC4)cc3)CC2)c1NC(=O)O[C@H](C)c1ccccc1 (single isomer, unassigned) [IT060] | > 500 | > 500 |
| C[C@@H](OC(=O)Nc1c(C#Cc2cc3sc(C4(C(=O)OCCN5CCOCC5)CC4)cc3s2)cnn1C)c1ccccc1 [IT082] | 50 to 500 | 50 to 500 |
| C[C@@H](OC(=O)Nc1c(-c2cc(F)c(-c3ccc(C4(C(=O)O)CC4)cc3)cc2F)oc2ccccc12)c1ccccc1 [IT075] | 50 to 500 | < 50 |
| COCCOC(=O)C1(c2cc3sc(C#Cc4cnn(C)c4NC(=O)O[C@H](C)c4ccccc4)cc3s2)CC1 [IT084] | 50 to 500 | < 50 |
| C[C@@H](OC(=O)Nc1c(-c2ccc(C#CC3(C(=O)O)CC3)cc2)nnn1C)c1ccccc1 [IT036] | > 500 | > 500 |
| C[C@@H](OC(=O)Nc1c(C#Cc2cc3sc(C4(C(=O)OCC(=O)N(C)C)CC4)cc3s2)cnn1C)c1ccccc1 [IT090] | 50 to 500 | < 50 |
| Cc1noc(C#Cc2ccc(-c3ccc(C(=O)O)cc3)cc2)c1NC(=O)O[C@H](C)c1ccccc1 [IT081] | > 500 | > 500 |

| SMILES | EC50 [1] [nM] | EC50 (Human LPA1) [nM] |
| --- | --- | --- |
| C[C@@H](OC(=O)Nc1c(C#Cc2sc3cc(C4(C(=O)O)CC4)sc3c2C(F)(F)F)cnn1C)c1ccccc1 [IT 103] | – | < 50 |
| Cc1nsc(-c2ccc([C@H]3CC[C@@H](C(=O)O)CC3)cc2)c1NC(=O)O[C@H](C)c1ccccc1 [IT007] | > 500 | > 500 |
| C[C@@H](OC(=O)N(C)c1c(C#Cc2cc3sc(C4(C(=O)O)CC4)cc3s2)cnn1C)c1ccccc1 [IT097] | > 500 | 50 to 500 |
| C[C@@H](OC(=O)Nc1c(-c2cc(F)c(-c3ccc(C4(C(=O)O)CCOCC4)cc3)cc2F)cnn1C)c1ccccc1 [IT044] | 50 to 500 | < 50 |
| C[C@@H](OC(=O)Nc1c(C#Cc2cc3sc(C4(CO)CC4)cc3s2)cnn1C)c1ccccc1 [IT083] | > 500 | > 500 |
| Cc1nsc(-c2cc(F)c(-c3ccc(C4(C(=O)O)CCOCC4)cc3)cc2F)c1NC(=O)OCc1ccccc1 [IT045] | > 500 | > 500 |
| Cc1noc(C#Cc2ccc(NC(=O)C3(C(=O)O)CC3)cc2)c1NC(=O)O[C@H](C)c1ccccc1 [IT005] | > 500 | > 500 |
| Cc1noc(-c2ccc(-c3ccc(C4(C(=O)O)CC4)cc3)cc2)c1NC(=O)O[C@H]1CCCc2ccccc21 (single isomer, unassigned) [IT058] | > 500 | > 500 |
| Cc1nsc(-c2ccc([C@H]3CC[C@H](C(=O)O)CC3)cc2)c1NC(=O)O[C@H](C)c1ccccc1 [IT008] | > 500 | > 500 |
| Cc1noc(-c2ccc(-c3ccc(C4(C(=O)O)CC4)cc3)cc2)c1NC(=O)OC(C)c1cccc2ocnc12 (single isomer, unassigned) [IT076] | – | > 500 |
| Cc1noc(-c2ccc(-c3ccc(C4(C(=O)O)CC4)cc3)cc2)c1NC(=O)OC(C)c1cccc2ocnc12 (single isomer, unassigned) [IT077] | – | 50 to 500 |
| Cc1nsc(C#Cc2ccc3c(c2)CCC(C(=O)O)C3)c1NC(=O)O[C@H](C)c1ccccc1 (single isomer, unassigned) [IT062] | > 500 | > 500 |
| CCN1CCn2c(nc(-c3ccc(-c4ccc(C5(C(=O)O)CC5)cc4)cc3)c2NC(=O)O[C@H](C)c2ccccc2)C1 [IT024] | > 500 | > 500 |
| Cc1nsc(-c2cc3cc4sc(C(=O)O)cc4cc3s2)c1NC(=O)O[C@H](C)c1ccccc1 [IT080] | – | > 500 |
| Cc1noc(-c2ccc(-c3ccc4c(c3)CCOC4C(=O)O)cc2)c1NC(=O)O[C@H](C)c1ccccc1 (stereo partly drawn) [IT012] | > 500 | > 500 |
| Cc1nsc(-c2ccc3cc(C4CCC(C(=O)O)CC4)ccc3c2)c1NC(=O)O[C@H](C)c1ccccc1 (stereo partly drawn) [IT053] | > 500 | > 500 |
| Cc1noc(-c2ccc(-c3ccc(C4(C(=O)O)CC4)cc3)cc2)c1NC(=O)O[C@@H]1CCCc2ccccc21 (single isomer, unassigned) [IT057] | > 500 | > 500 |
| Cc1noc(-c2ccc(-c3ccc4c(c3)OCCC4C(=O)O)cc2)c1NC(=O)O[C@H](C)c1ccccc1 (stereo partly drawn) [IT037] | – | 50 to 500 |
| C[C@@H](OC(=O)Nc1c(C#Cc2cc3sc(C4(NS(C)(=O)=O)CC4)cc3s2)cnn1C)c1ccccc1 [IT089] | > 500 | > 500 |
| Cc1noc(C#Cc2nc3sc(C4(C(=O)O)CC4)cc3s2)c1NC(=O)O[C@H](C)c1ccccc1 [IT 102] | – | < 50 |
| COCC(COC(=O)C1(c2cc3sc(C#Cc4cnn(C)c4NC(=O)O[C@H](C)c4ccccc4)cc3s2)CC1)OC (stereo partly drawn) [IT 100] | – | < 50 |
| Cc1nsc(-c2ccc(-c3ccc(C4(C(=O)O)CC4)cc3)cc2)c1NC(=O)OC(c1ccccc1)C(F)(F)F (single isomer, unassigned) [IT078] | 50 to 500 | < 50 |
| C[C@@H](OC(=O)Nc1c(-c2cc(F)c(-c3ccc(C4(C(=O)O)CCOCC4)cc3)cc2F)nnn1C)c1ccccc1 [IT055] | 50 to 500 | 50 to 500 |
| C[C@@H](OC(=O)Nc1c(C#Cc2cc3sc(C4(C(=O)NS(C)(=O)=O)CC4)cc3s2)cnn1C)c1ccccc1 [IT098] | < 50 | < 50 |
| C[C@@H](OC(=O)Nc1c(C#Cc2cc3sc(C4(C(=O)O)CC4)cc3s2)oc2ccccc12)c1ccccc1 [IT074] | > 500 | 50 to 500 |
| Cc1noc(-c2ccc(-c3ccc4c(c3)CCCC4C(=O)O)cc2)c1NC(=O)O[C@H](C)c1ccccc1 (single isomer, unassigned) [IT039] | > 500 | – |
| C[C@@H](OC(=O)Nc1c(-c2ccc(-c3ccc(C4(C(=O)O)CC4)cc3)cc2)nn2ccccc12)c1ccccc1 [IT052] | > 500 | – |
